Experimental data from patent US20240246905A1 (University of Leicester, priority 2021, published 2024).
In brackets after ≈: the same amount, converted by molar mass. Read-outs that look alike come from different tables or passages of the source.

Key:
MRSA 252 [1] = test: MIC, broth micro-dilution; assay type: cell-based, Staphylococcus aureus; details: Staphylococcus aureus, read-out: MIC
Description: (§1) E. coli DH5α, P. aeruginosa PA01 and the 53 S. aureus strains were recovered from frozen (−80° C.) glycerol (15% v/v) stocks on Lysogeny agar (LA)—Gram negative and trypticase soy agar (TSA)—plates at 37° C. for 24 hours. Single colonies were placed in either 3 mL Lysogeny broth (LB)—Gram negative or trypticase soy broth (TSB)—Gram positive and incubated at 37° C., 250 rpm for 18 hours.
(§2) Antibiotic MIC's were determined by a broth micro-dilution method according to Clinical Standard Laboratory Institute (CSLI) Guidelines (2017). Briefly, 96-well microplates, each containing 195 μL of the 1:2 dilution antibiotic in TSB, were inoculated with 5 μL of overnight cultured bacteria, diluted to give a starting bacterial concentration of 5×10^5 CFU/mL. The optical density of each well inoculated was recorded every 12 minutes over an 18 hour period at 37° C. The data from this was plotted in OriginPro8 (OriginLab) and sigmoidal curves fitted using the dose response function. Fitted values for each curve were used to calculate the MIC.

MSSA 476 [2] = test: MIC, broth micro-dilution; assay type: cell-based, Staphylococcus aureus
Description: as §1, §2

MRSA 252 [3] = test: Disc diffusion (Kirby-Bauer), zone of inhibition; assay type: cell-based, Staphylococcus aureus; details: Staphylococcus aureus, 500 μg/mL, '/' = no zone, read-out: Zone of inhibition
Description: as §1
(§3) The antibiotic activity was determined using a Kirby-Bauer method according to Clinical Standard Laboratory Institute (CSLI) Guidelines (2017). Briefly, 180 μL of a 1 in 200 dilution (in LB or TSB) of overnight cultures of selected Gram negative and Gram positive bacteria were applied to an agar plate containing the solid growth medium, Mueller-Hinton agar (MHA). Sterile discs, inoculated with 50 μL of antibiotic, were first added to the agar plate before the plates were incubated for 24 hours at 37° C. Following incubation, the zone of inhibition (if it existed) was recorded.

MSSA 476 [4] = test: Disc diffusion (Kirby-Bauer), zone of inhibition; assay type: cell-based, Staphylococcus aureus; details: 500 μg/mL, '/' = no zone; for zone of inhibition at 500 µg/mL: Staphylococcus aureus, read-out: Zone of inhibition
Description: as §1, §3

[5] = test system: Staphylococcus aureus 15981; test: Disc diffusion (Kirby-Bauer), zone of inhibition; assay type: cell-based; details: Staphylococcus aureus 15981, 500 μg/mL, '/' = no zone; for zone of inhibition at 500 µg/mL: read-out: Zone of inhibition
Description: as §1, §3

C. albicans ATCC 90028 = test: Anti-fungal MIC (CO-ADD); assay type: cell-based; details: Candida albicans, ATCC90028, read-out: MIC
Description: (§4) Fungal strains were cultured for 3 days on Yeast Extract-Peptone Dextrose (YPD) agar at 30° C. A yeast suspension of 1×10^6 to 5×10^6 CFU/mL (as determined by OD530) was prepared from five colonies. […] All plates were covered and incubated at 35° C. for 36 hours without shaking. […] The absorbance was measured using a Biotek Multiflo Synergy HTX plate reader. In both cases, the percentage of growth inhibition was calculated for each well, using the negative control (media only) and positive control (fungi without inhibitors) on the same plate. […] Due to a higher variance in growth and inhibition, a lower threshold was applied to the data for C. neoformans. In addition, the maximal percentage of growth inhibition is reported as DMax, indicating any compounds with marginal activity.

[6] = test system: C. deuterogattii ATCC 32609; test: Anti-fungal MIC (CO-ADD); assay type: cell-based; details: read-out: MIC
Description: as §4

C. glabrata ATCC 90030 = test: Anti-fungal MIC (CO-ADD); assay type: cell-based; details: Nakaseomyces glabratus, ATCC90030, read-out: MIC
Description: as §4

[7] = test system: C. neoformans H99; ATCC 208821; test: Anti-fungal MIC (CO-ADD); assay type: cell-based; details: Cryptococcus neoformans, ATCC208821, read-out: MIC
Description: as §4

C. tropicalis ATCC 450 = test: Anti-fungal MIC (CO-ADD); assay type: cell-based; details: Candida tropicalis, ATCC450, read-out: MIC
Description: as §4

C. tropicalis ATCC 750 = test: Anti-fungal MIC (CO-ADD); assay type: cell-based; details: Candida tropicalis, ATCC750, read-out: MIC
Description: as §4

Escherichia coli DH5α = test: Disc diffusion (Kirby-Bauer), zone of inhibition; assay type: cell-based; details: Escherichia coli DH5α; 500 μg/mL; '/' = no zone; read-out: Zone of inhibition
Description: as §1, §3

[8] = test system: Pseudomonas aeruginosa PA01; test: Disc diffusion (Kirby-Bauer), zone of inhibition; assay type: cell-based; details: 500 μg/mL, '/' = no zone
Description: as §1, §3

[9] = test system: MRSA 252, MSSA 476, S. aureus 15981, P. aeruginosa PA01 and E. coli DH5α; test: Disc diffusion primary screening, five strains (statements in words); assay type: cell-based; details: 500 μg/mL
Description: As such, the minimum inhibition concentration (MICs) of biologically active compounds were further assessed using the broth dilution method against the S. aureus strains; MRSA 252 and MSSA 476 (Table 1). The results of both assays enabled key structural elements and functional groups required for the compounds to retain their antibiotic activity to be identified.
as §3

[10] = Staphylococcus aureus, MSSA, read-out: MIC

Compound	MIC (MRSA 252 [1])	MIC (MSSA 476 [2]; [10])	zone of inhibition at 500 µg/mL (MRSA 252 [3])	zone of inhibition at 500 µg/mL (MSSA 476 [4])	zone of inhibition at 500 µg/mL [5]	zone of inhibition at 500 µg/mL [8]	further results
[C-]#[N+]/C=C/c1cc(OC)ccc1O [Compound 12, (E)-2-(2-Isocyanovinyl)-4-methoxyphenol]	123 µg/mL (≈ 702 µM)	187 µg/mL (≈ 1070 µM)	16 mm	14 mm	16 mm	–	–
[C-]#[N+]C=Cc1ccc(O)cc1Br [Compound 15, 3-Bromo-4-(2-isocyanovinyl)phenol]	185 µg/mL (≈ 826 µM)	200 µg/mL (≈ 893 µM)	20 mm	22 mm	24 mm	–	MIC (C. albicans ATCC 90028): 8 µg/mL; MIC [6]: 4 µg/mL; MIC (C. glabrata ATCC 90030): 32 µg/mL; MIC [7]: 8 µg/mL; MIC (C. tropicalis ATCC 450): 4 µg/mL; MIC (C. tropicalis ATCC 750): 16 µg/mL
[C-]#[N+]C=C(C)c1ccc(NS(C)(=O)=O)cc1 [Compound 24, N-(4-(1-Isocyanoprop-1-en-2-yl)phenyl)methanesulfonamie]	152 µg/mL (≈ 643 µM)	291 µg/mL (≈ 1230 µM)	16 mm	22 mm	18 mm	–	zone of inhibition at 500 µg/mL (Escherichia coli DH5α): 14 mm
[C-]#[N+]C=Cc1c[nH]c2cccc(Br)c12 [Compound 30, 4-Bromo-3-(2-isocyanovinyl)-1H-indole]	214 µg/mL (≈ 866 µM)	350 µg/mL (≈ 1420 µM)	14 mm	12 mm	12 mm	–	–
[C-]#[N+]/C=C/c1cn(C(C)C)c2ccccc12 [Compound 29]	63 µg/mL (≈ 300 µM)	90 µg/mL (≈ 428 µM)	22 mm	16 mm	16 mm	12 mm	–
[C-]#[N+]/C=C/c1cc(/C=C/c2ccccc2)ccc1O [Compound 37]	105 µg/mL (≈ 425 µM)	120 µg/mL (≈ 485 µM)	22 mm	24 mm	22 mm	–	antibiotic activity in disc diffusion assays (in words) [9]: retained antibiotic activity
[C-]#[N+]c1ccc(O)cc1 [Compound 5, 4-Isocyanophenol]	26 µg/mL (≈ 218 µM)	23 µg/mL (≈ 193 µM)	26 mm	30 mm	16 mm	26 mm	zone of inhibition at 500 µg/mL (Escherichia coli DH5α): 18 mm
[C-]#[N+]C=Cc1cn(CC)c2ccccc12 [Compound 28]	56 µg/mL (≈ 285 µM)	144 µg/mL (≈ 734 µM)	26 mm	22 mm	22 mm	20 mm	–
[C-]#[N+]C=Cc1ccc(O)c(O)c1 [Compound 16, 4-(2-Isocyanovinyl)benzene-1,2-diol]	116 µg/mL (≈ 720 µM)	400 µg/mL (≈ 2480 µM)	22 mm	22 mm	24 mm	18 mm	–
[C-]#[N+]C=Cc1cccc(O)c1 [Compound 10, 3-(2-Isocyanovinyl)phenol]	137 µg/mL (≈ 944 µM)	300 µg/mL (≈ 2070 µM)	20 mm	16 mm	18 mm	–	–
[C-]#[N+]CCc1ccc(O)cc1 [Compound 4, 4-(2-Isocyanoethyl)phenol]	–	–	–	–	–	–	antibiotic activity in disc diffusion assays (in words) [9]: complete loss of activity against all five strains
[C-]#[N+]/C=C/c1ccc(NC(C)=O)cc1/C=C/c1ccncc1 [Compound 44, N-(4-((E)-2-Isocyanovinyl)-3-((E)-2-(pyridin-4-yl)vinyl)phenyl)acetamide]	35 µg/mL (≈ 121 µM)	46 µg/mL (≈ 159 µM)	28 mm	28 mm	30 mm	26 mm	antibiotic activity in disc diffusion assays (in words) [9]: antibiotic activity against four of the strains
[C-]#[N+]C=Cc1ccc(NC(=O)OC(C)(C)C)cc1 [Compound 23, Tert-butyl(4-(isocyanovinyl)phenyl)carbamate]	35 µg/mL (≈ 143 µM)	164 µg/mL (≈ 671 µM)	18 mm	20 mm	14 mm	14 mm	zone of inhibition at 500 µg/mL (Escherichia coli DH5α): 14 mm
[C-]#[N+]C=Cc1cc(OC)ccc1OC (mixture of isomers) [Compound 18, (E/Z)-2-(Isocyanovinyl)-1,4-dimethoxybenzene]	117 µg/mL	210 µg/mL	14 mm	26 mm	20 mm	–	–
[C-]#[N+]/C=C/c1ccccc1O (single isomer, unassigned) [Compound 11, 2-(2-isocyanovinyl)phenol]	250 µg/mL (≈ 1720 µM)	350 µg/mL (≈ 2410 µM)	18 mm	20 mm	14 mm	12 mm	–
[C-]#[N+]/C=C/c1ccc(NC(C)=O)cc1-c1ccccc1 [Compound 43, (E)-N-(6-(2-Isocyanovinyl)-(1,1-biphenyl)-3-yl)acetamide]	32 µg/mL (≈ 122 µM)	26 µg/mL (≈ 99.1 µM)	22 mm	18 mm	18 mm	–	–
[C-]#[N+]C=Cc1c[nH]c2cccc(Br)c12 [Compound 31, 4-Bromo-3-(2-isocyanovinyl)-1H-indole]	–	–	–	–	–	–	MIC (MSSA 476 [2]): 361 µg/mL (≈ 1460 µM); Zone of inhibition (MSSA 476 [4]): 12 mm; Zone of inhibition [5]: 12 mm
[C-]#[N+]C=Cc1cc(Br)c(O)c(Br)c1 [Compound 17, 2,6-Dibromo-4-(2-isocyanovinyl)phenol]	157 µg/mL (≈ 518 µM)	176 µg/mL (≈ 581 µM)	18 mm	18 mm	16 mm	–	–
